Results: US20100298141A1, “SUBSTITUTED PYRIDINE N-OXIDE HERBICIDES” (E. I. DU PONT DE NEMOURS AND COMPANY, priority 2007, published 2010)

Key:
Test in all cases: Test F preemergence test
[1] = system: guineagrass; type: in vivo, Panicum maximum; conditions: scale 0 to 100
From the text: (§1) Seeds of plant species selected from bermudagrass (Cynodon dactylon), Surinam grass (Brachiaria decumbens), large crabgrass (Digitaria sanguinalis), green foxtail (Setaria viridis), goosegrass (Eleusine indica), johnsongrass (Sorghum halepense), kochia (Kochia scoparia), pitted morningglory (Ipomoea lacunosa), purple nutsedge (Cyperus rotundus), common ragweed (Ambrosia elation), mustard (Brassica nigra), guineagrass (Panicum maximum), […] (Paspalum dilatatum), barnyardgrass (Echinochloa crus-galli), southern sandbur (Cenchrus echinatus), common sowthistle (Sonchus oleraceous), prickly […] spinosa), Italian ryegrass (Lolium multiflorum), common purslane (Portulaca oleracea), broadleaf signalgrass (Brachiaria platyphylla), common groundsel (Senecio vulgaris), common chickweed (Stellaria media), Virginia dayflower (Commelina virginica), annual bluegrass (Poa annua), naked crabgrass (Digitaria nuda), […] cochinchinensis), quackgrass (Elytrigia repens), Canada horseweed (Conyza canadensis), field bindweed (Convolvulus arvensis), […] (Bidens bipinnata), common mallow (Malva sylvestris), Russian thistle (Salsola kali), and sugarcane (Saccharum officinarum) were planted and treated preemergence with test chemicals formulated in a non-phytotoxic solvent mixture which included a surfactant. At a different time, sugarcane was treated with postemergence applications of some of the test chemicals formulated in the same manner. Plants were approximately 3- to 4-leaf stage for the postemergence treatments. Treated plants and controls were maintained in a greenhouse for 14 to 21 days, after which time all species were compared to controls and visually evaluated. […] A dash (-) response means no test result.

[2] = system: common ragweed; type: in vivo, Ambrosia elation; conditions: scale 0 to 100; for Ragweed plant response rating: preemergence; for Plant response rating, Ragweed: Preemergence
From the text: as §1

[3] = system: goosegrass; type: in vivo, Eleusine indica; conditions: scale 0 to 100
From the text: as §1

[4] = system: large crabgrass; type: in vivo, Digitaria sanguinalis; conditions: scale 0 to 100
From the text: as §1

[5] = system: johnsongrass; type: in vivo, Sorghum halepense; conditions: scale 0 to 100
From the text: as §1

[6] = system: broadleaf signalgrass; type: in vivo, Brachiaria platyphylla; conditions: scale 0 to 100; for Signalgrass plant response rating: preemergence; for Plant response rating, Signalgrass: Preemergence
From the text: as §1

[7] = system: Italian ryegrass; type: in vivo, Lolium multiflorum; conditions: scale 0 to 100; for Ryegrass, Italian plant response rating: preemergence; for Plant response rating, Ryegrass, Italian: Preemergence
From the text: as §1

[8] = system: prickly sida; type: in vivo, Sida spinosa; conditions: scale 0 to 100
From the text: as §1

[9] = system: pitted morningglory; type: in vivo, Ipomoea lacunosa; conditions: scale 0 to 100
From the text: as §1

[10] = system: mustard; type: in vivo, Brassica nigra; conditions: scale 0 to 100
From the text: as §1

[11] = system: kochia; type: in vivo, Kochia scoparia; conditions: scale 0 to 100
From the text: as §1

[12] = system: bermudagrass; type: in vivo, Cynodon dactylon; conditions: scale 0 to 100
From the text: as §1

[13] = system: common purslane; type: in vivo, Portulaca oleracea; conditions: scale 0 to 100
From the text: as §1

[14] = system: quackgrass; type: in vivo, Elytrigia repens; conditions: scale 0 to 100
From the text: as §1

[15] = system: common groundsel; type: in vivo, Senecio vulgaris; conditions: scale 0 to 100
From the text: as §1

[16] = system: naked crabgrass; type: in vivo, Digitaria nuda; conditions: scale 0 to 100
From the text: as §1

[17] = system: Surinam grass; type: in vivo, Brachiaria decumbens; conditions: scale 0 to 100; for Surinam Grass plant response rating: preemergence; for Plant response rating, Surinam Grass: Preemergence
From the text: as §1

[18] = system: itchgrass; type: in vivo, Rottboellia cochinchinensis; conditions: scale 0 to 100
From the text: as §1

[19] = system: dallisgrass; type: in vivo, Paspalum dilatatum; conditions: scale 0 to 100
From the text: as §1

[20] = system: barnyardgrass; type: in vivo, Echinochloa crus-galli; conditions: scale 0 to 100
From the text: as §1

Cn1nc(C(F)(F)F)c(C[S+]([O-])c2ccc(F)c[n+]2[O-])c1OC(F)F (centres unmarked) [Compound 58]
Guineagrass plant response rating ([1]; 62 g ai/ha, Preemergence): 100 | Guineagrass plant response rating ([1]; 125 g ai/ha, preemergence): 100 | Guineagrass plant response rating ([1]; 250 g ai/ha, preemergence): 100 | Plant response rating, Guineagrass ([1]; Preemergence, 31 g ai/ha): 90 | Ragweed plant response rating ([2]; 125 g ai/ha): 60 | Ragweed plant response rating ([2]; 250 g ai/ha): 80 | Plant response rating, Ragweed ([2]; 62 g ai/ha): 60 | Plant response rating, Ragweed ([2]; 31 g ai/ha): 50 | Goosegrass plant response rating ([3]; 62 g ai/ha, Preemergence): 98 | Goosegrass plant response rating ([3]; 125 g ai/ha, preemergence): 98 | Goosegrass plant response rating ([3]; 250 g ai/ha, preemergence): 100 | Plant response rating, Goosegrass ([3]; Preemergence, 31 g ai/ha): 70 | Crabgrass, Large plant response rating ([4]; 62 g ai/ha, Preemergence): 98 | Crabgrass, Large plant response rating ([4]; 125 g ai/ha, preemergence): 100 | Crabgrass, Large plant response rating ([4]; 250 g ai/ha, preemergence): 100 | Plant response rating, Crabgrass, Large ([4]; Preemergence, 31 g ai/ha): 75 | Johnsongrass plant response rating ([5]; 62 g ai/ha, Preemergence): 90 | Johnsongrass plant response rating ([5]; 125 g ai/ha, preemergence): 100 | Johnsongrass plant response rating ([5]; 250 g ai/ha, preemergence): 100 | Plant response rating, Johnsongrass ([5]; Preemergence, 31 g ai/ha): 80 | Signalgrass plant response rating ([6]; 125 g ai/ha): 90 | Signalgrass plant response rating ([6]; 250 g ai/ha): 98 | Plant response rating, Signalgrass ([6]; 62 g ai/ha): 80 | Plant response rating, Signalgrass ([6]; 31 g ai/ha): 30 | Ryegrass, Italian plant response rating ([7]; 125 g ai/ha): 100 | Ryegrass, Italian plant response rating ([7]; 250 g ai/ha): 100 | Plant response rating, Ryegrass, Italian ([7]; 62 g ai/ha): 98 | Plant response rating, Ryegrass, Italian ([7]; 31 g ai/ha): 50 | Prickly Sida plant response rating ([8]; 62 g ai/ha, Preemergence): 65 | Prickly Sida plant response rating ([8]; 125 g ai/ha, preemergence): 95 | Prickly Sida plant response rating ([8]; 250 g ai/ha, preemergence): 98 | Plant response rating, Prickly Sida ([8]; Preemergence, 31 g ai/ha): 0 | Morningglory plant response rating ([9]; 62 g ai/ha, Preemergence): 70 | Morningglory plant response rating ([9]; 125 g ai/ha, preemergence): 100 | Morningglory plant response rating ([9]; 250 g ai/ha, preemergence): 100 | Plant response rating, Morningglory ([9]; Preemergence, 31 g ai/ha): 50 | Black Mustard plant response rating ([10]; 62 g ai/ha, Preemergence): 60 | Black Mustard plant response rating ([10]; 125 g ai/ha, preemergence): 100 | Black Mustard plant response rating ([10]; 250 g ai/ha, preemergence): 100 | Plant response rating, Black Mustard ([10]; Preemergence, 31 g ai/ha): 50 | Kochia plant response rating ([11]; 62 g ai/ha, Preemergence): 40 | Kochia plant response rating ([11]; 125 g ai/ha, preemergence): 100 | Kochia plant response rating ([11]; 250 g ai/ha, preemergence): 100 | Plant response rating, Kochia ([11]; Preemergence, 31 g ai/ha): 20 | Bermudagrass plant response rating ([12]; 62 g ai/ha, Preemergence): 90 | Bermudagrass plant response rating ([12]; 125 g ai/ha, preemergence): 100 | Bermudagrass plant response rating ([12]; 250 g ai/ha, preemergence): 100 | Plant response rating, Bermudagrass ([12]; Preemergence, 31 g ai/ha): 70 | Purslane plant response rating ([13]; 62 g ai/ha, Preemergence): 25 | Purslane plant response rating ([13]; 125 g ai/ha, preemergence): 80 | Purslane plant response rating ([13]; 250 g ai/ha, preemergence): 100 | Plant response rating, Purslane ([13]; Preemergence, 31 g ai/ha): 0 | Quackgrass plant response rating ([14]; 62 g ai/ha, Preemergence): 70 | Quackgrass plant response rating ([14]; 125 g ai/ha, preemergence): 95 | Quackgrass plant response rating ([14]; 250 g ai/ha, preemergence): 100 | Plant response rating, Quackgrass ([14]; Preemergence, 31 g ai/ha): 35 | Groundsel plant response rating ([15]; 62 g ai/ha, Preemergence): 60 | Groundsel plant response rating ([15]; 125 g ai/ha, preemergence): 85 | Groundsel plant response rating ([15]; 250 g ai/ha, preemergence): 100 | Plant response rating, Groundsel ([15]; Preemergence, 31 g ai/ha): 20 | Crabgrass, Naked plant response rating ([16]; 62 g ai/ha, Preemergence): 100 | Crabgrass, Naked plant response rating ([16]; 125 g ai/ha, preemergence): 100 | Crabgrass, Naked plant response rating ([16]; 250 g ai/ha, preemergence): 100 | Plant response rating, Crabgrass, Naked ([16]; Preemergence, 31 g ai/ha): 75 | Surinam Grass plant response rating ([17]; 125 g ai/ha): 100 | Surinam Grass plant response rating ([17]; 250 g ai/ha): 100 | Plant response rating, Surinam Grass ([17]; 62 g ai/ha): 98 | Plant response rating, Surinam Grass ([17]; 31 g ai/ha): 80 | Itchgrass plant response rating ([18]; 62 g ai/ha, Preemergence): 75 | Itchgrass plant response rating ([18]; 125 g ai/ha, preemergence): 90 | Itchgrass plant response rating ([18]; 250 g ai/ha, preemergence): 100 | Plant response rating, Itchgrass ([18]; Preemergence, 31 g ai/ha): 35 | Dallisgrass plant response rating ([19]; 62 g ai/ha, Preemergence): 90 | Dallisgrass plant response rating ([19]; 125 g ai/ha, preemergence): 98 | Dallisgrass plant response rating ([19]; 250 g ai/ha, preemergence): 98 | Plant response rating, Dallisgrass ([19]; Preemergence, 31 g ai/ha): 75 | Barnyardgrass plant response rating ([20]; 62 g ai/ha, Preemergence): 100 | Barnyardgrass plant response rating ([20]; 125 g ai/ha, preemergence): 100 | Barnyardgrass plant response rating ([20]; 250 g ai/ha, preemergence): 100 | Plant response rating, Barnyardgrass ([20]; Preemergence, 31 g ai/ha): 90
